Test results: ChEMBL document CHEMBL6109120, “Discovery of Novel SIK2/3 Inhibitors for the Potential Treatment of MEF2C+ Acute Myeloid Leukemia (AML)” (J Med Chem, 2025)

What was measured:
[1] = target: Cytochrome P450 2C19 (Homo sapiens, UniProt P33261); assay: Inhibition of CYP2C19 in human liver microsomes assessed as S-mephenytoin 4-hydroxylation reaction measured after 30 mins by LC/MS/MS analysis; type: ADME, Microsome
[2] = target: T1, Serine/threonine-protein kinase ULK1 (Homo sapiens, UniProt O75385)
T1 sequence (O75385 whole entry): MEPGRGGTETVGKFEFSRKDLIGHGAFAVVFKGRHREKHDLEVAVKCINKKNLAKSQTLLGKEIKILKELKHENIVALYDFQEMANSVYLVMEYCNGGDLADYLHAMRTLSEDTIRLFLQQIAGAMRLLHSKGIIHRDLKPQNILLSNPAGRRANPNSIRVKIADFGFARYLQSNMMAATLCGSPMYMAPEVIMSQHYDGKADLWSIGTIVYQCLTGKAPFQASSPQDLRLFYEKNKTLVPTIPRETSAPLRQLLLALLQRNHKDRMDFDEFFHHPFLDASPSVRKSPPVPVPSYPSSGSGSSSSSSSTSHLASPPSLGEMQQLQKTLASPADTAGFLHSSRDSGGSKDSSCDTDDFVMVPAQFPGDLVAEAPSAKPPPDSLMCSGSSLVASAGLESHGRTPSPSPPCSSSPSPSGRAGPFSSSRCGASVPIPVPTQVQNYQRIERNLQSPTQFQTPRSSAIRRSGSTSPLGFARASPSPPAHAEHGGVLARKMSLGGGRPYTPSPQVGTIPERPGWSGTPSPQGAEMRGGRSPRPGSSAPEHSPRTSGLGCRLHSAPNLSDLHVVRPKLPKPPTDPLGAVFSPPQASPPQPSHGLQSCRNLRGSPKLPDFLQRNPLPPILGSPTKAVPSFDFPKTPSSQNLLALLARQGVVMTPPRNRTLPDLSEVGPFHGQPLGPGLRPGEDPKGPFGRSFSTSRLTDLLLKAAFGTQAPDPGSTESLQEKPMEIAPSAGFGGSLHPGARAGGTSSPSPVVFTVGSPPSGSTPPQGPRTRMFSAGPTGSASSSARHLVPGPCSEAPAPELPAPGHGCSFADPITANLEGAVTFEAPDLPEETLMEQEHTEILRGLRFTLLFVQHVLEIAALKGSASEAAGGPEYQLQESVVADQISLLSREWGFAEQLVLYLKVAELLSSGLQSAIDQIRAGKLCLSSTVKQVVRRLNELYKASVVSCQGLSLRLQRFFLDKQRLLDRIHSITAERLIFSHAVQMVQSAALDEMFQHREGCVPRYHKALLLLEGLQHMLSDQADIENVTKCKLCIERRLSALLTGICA
Description: Binding affinity to human ULK1 by KINOMEscan assay

[3] = target: Cytochrome P450 2D6 (Homo sapiens, UniProt P10635); assay: Inhibition of CYP2D6 in human liver microsomes assessed as dextromethorphan O-demethylation reaction measured after 30 mins by LC/MS/MS analysis; type: ADME, Microsome
[4] = target: Cytochrome P450 2C9 (Homo sapiens, UniProt P11712); assay: Inhibition of CYP2C9 in human liver microsomes assessed as diclofenac 4-hydroxylation reaction measured after 30 mins by LC/MS/MS analysis; type: ADME, Microsome
[5] = target: Cytochrome P450 3A4 (Homo sapiens, UniProt P08684); assay: Inhibition of CYP3A4 in human liver microsomes assessed as midazolam 1-hydroxylation reaction measured after 30 mins by LC/MS/MS analysis; type: ADME, Microsome
[6] = target: T2, Receptor-type tyrosine-protein kinase FLT3 (Homo sapiens, UniProt P36888); assay: Binding affinity to human FLT3 by KINOMEscan assay
T2 sequence (P36888 whole entry): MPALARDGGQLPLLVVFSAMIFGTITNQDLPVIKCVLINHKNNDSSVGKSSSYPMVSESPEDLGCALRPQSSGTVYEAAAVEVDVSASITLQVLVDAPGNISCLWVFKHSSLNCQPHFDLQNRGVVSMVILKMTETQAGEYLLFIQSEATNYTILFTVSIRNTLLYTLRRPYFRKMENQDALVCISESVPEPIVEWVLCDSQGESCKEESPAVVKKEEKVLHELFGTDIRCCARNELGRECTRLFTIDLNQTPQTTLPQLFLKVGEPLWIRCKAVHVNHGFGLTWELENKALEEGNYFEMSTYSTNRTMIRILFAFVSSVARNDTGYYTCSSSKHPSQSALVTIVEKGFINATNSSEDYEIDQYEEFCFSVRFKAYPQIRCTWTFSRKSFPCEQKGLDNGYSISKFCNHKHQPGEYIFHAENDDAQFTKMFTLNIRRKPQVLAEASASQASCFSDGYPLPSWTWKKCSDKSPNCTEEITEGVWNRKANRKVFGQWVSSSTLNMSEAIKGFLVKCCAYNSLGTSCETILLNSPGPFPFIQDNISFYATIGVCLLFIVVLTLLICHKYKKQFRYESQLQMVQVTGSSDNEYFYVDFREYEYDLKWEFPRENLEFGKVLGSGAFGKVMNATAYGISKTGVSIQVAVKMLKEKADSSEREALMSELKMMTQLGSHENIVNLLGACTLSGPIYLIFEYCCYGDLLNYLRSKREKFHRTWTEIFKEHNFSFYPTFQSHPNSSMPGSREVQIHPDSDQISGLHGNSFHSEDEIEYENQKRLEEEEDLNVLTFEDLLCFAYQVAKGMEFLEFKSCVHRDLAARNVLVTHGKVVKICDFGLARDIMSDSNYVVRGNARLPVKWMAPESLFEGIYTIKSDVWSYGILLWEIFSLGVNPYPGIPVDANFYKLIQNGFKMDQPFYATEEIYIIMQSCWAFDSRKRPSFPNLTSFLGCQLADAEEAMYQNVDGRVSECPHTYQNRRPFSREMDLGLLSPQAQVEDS

[7] = target: Mast/stem cell growth factor receptor Kit (Homo sapiens, UniProt P10721); assay: Binding affinity to human KIT by KINOMEscan assay
Chain of Mast/stem cell growth factor receptor Kit (P10721 whole entry): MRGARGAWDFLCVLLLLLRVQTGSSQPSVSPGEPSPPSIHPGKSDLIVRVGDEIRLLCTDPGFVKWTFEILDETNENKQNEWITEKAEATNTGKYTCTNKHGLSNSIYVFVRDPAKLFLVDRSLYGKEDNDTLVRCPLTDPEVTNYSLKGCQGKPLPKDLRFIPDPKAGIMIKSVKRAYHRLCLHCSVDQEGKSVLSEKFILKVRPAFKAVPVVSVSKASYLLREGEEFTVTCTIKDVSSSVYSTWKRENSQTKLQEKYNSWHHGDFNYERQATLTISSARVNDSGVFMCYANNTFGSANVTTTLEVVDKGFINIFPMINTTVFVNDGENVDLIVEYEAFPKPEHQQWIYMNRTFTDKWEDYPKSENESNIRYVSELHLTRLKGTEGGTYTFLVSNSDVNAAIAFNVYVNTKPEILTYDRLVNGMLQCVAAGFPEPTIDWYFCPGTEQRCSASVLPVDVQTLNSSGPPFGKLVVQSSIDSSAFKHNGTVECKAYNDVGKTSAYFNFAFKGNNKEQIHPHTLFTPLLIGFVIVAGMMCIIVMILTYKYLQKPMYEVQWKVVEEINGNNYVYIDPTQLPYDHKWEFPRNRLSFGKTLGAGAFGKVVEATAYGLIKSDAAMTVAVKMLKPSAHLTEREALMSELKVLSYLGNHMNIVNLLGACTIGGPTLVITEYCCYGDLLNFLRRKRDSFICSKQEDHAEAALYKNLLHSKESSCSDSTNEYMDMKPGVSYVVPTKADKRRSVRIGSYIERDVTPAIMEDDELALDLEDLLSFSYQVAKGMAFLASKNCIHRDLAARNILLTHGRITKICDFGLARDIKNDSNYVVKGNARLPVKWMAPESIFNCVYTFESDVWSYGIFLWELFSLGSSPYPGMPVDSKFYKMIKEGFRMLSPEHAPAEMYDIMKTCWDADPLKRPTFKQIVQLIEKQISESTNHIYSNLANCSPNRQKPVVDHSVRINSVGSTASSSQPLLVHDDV

Chain of Cytochrome P450 3A4 (P08684 whole entry): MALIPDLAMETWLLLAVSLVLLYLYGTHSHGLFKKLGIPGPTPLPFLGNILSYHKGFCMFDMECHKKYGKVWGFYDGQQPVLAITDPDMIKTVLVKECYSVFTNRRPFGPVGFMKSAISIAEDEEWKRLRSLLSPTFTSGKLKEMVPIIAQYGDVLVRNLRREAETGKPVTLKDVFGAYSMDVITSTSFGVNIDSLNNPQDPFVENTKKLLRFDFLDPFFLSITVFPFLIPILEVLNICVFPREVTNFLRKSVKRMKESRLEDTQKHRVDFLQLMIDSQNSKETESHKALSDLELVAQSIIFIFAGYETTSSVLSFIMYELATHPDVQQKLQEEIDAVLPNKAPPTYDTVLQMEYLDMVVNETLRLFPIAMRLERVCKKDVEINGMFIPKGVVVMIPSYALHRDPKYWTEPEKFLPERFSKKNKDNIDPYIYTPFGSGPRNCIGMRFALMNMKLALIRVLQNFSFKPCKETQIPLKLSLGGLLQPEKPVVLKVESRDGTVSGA
Chain of Cytochrome P450 2C9 (P11712 whole entry): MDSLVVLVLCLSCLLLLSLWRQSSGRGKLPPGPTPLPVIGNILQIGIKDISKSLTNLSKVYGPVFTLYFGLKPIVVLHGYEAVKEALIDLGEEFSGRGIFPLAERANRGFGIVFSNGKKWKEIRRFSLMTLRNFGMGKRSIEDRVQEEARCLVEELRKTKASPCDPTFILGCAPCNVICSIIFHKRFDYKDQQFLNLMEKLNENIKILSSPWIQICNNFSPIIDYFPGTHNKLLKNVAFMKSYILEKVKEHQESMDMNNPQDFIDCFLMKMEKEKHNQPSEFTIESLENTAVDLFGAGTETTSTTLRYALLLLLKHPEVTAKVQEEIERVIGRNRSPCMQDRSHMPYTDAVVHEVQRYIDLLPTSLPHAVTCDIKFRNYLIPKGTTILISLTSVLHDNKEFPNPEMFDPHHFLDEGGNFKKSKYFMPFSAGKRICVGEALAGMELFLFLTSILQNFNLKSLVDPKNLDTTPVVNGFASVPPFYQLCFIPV
Chain of Cytochrome P450 2D6 (P10635 whole entry): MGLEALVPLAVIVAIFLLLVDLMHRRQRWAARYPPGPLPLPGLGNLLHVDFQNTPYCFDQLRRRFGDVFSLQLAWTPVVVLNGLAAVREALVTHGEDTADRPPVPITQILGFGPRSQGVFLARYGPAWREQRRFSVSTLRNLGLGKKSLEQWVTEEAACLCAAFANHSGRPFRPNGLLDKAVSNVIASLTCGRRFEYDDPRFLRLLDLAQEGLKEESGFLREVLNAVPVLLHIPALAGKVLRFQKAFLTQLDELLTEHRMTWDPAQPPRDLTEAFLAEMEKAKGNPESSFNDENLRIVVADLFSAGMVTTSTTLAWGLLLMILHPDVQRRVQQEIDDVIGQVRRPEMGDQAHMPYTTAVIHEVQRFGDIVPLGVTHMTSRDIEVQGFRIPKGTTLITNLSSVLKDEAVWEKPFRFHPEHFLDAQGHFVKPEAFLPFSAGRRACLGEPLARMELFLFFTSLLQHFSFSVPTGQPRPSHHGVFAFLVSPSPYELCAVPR
Chain of Cytochrome P450 2C19 (P33261 whole entry): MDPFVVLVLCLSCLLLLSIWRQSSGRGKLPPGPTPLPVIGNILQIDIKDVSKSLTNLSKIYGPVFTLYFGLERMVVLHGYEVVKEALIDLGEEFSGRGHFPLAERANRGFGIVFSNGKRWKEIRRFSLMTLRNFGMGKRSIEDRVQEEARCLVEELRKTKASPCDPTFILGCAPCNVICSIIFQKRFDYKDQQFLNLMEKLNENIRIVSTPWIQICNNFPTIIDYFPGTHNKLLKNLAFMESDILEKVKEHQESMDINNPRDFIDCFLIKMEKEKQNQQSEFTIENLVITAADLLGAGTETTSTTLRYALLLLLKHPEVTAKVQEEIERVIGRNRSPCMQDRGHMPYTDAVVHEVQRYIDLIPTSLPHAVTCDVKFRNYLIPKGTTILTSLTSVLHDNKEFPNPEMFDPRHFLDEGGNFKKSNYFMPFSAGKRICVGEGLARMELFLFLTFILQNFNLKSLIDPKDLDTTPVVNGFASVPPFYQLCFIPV

`COc1nc(-c2cc(-c3cnn(C)c3)cnc2N)cc2c1C(=O)N(CC(F)(F)F)CC2` was tested, and the IC50 [1] was greater than 50000 nM, the IC50 [2] was 586 nM and the IC50 [3] was greater than 50000 nM. For the same compound, the IC50 [4] was greater than 50000 nM, the IC50 [5] was greater than 50000 nM and the IC50 [6] was 85 nM. It also gave an IC50 [7] of 594 nM.
